This note sets out measurements from patent US12371432B2, “Haloallylamine compounds and application thereof” (TransThera Sciences (Nanjing), Inc., priority 2019, dated 2025).

Common to all, as to assay type: biochemical
The target in one test is T1, MAO-A (Homo sapiens, UniProt P21397).
T1 construct: purchased Active Motif
T1 sequence (P21397 1-527): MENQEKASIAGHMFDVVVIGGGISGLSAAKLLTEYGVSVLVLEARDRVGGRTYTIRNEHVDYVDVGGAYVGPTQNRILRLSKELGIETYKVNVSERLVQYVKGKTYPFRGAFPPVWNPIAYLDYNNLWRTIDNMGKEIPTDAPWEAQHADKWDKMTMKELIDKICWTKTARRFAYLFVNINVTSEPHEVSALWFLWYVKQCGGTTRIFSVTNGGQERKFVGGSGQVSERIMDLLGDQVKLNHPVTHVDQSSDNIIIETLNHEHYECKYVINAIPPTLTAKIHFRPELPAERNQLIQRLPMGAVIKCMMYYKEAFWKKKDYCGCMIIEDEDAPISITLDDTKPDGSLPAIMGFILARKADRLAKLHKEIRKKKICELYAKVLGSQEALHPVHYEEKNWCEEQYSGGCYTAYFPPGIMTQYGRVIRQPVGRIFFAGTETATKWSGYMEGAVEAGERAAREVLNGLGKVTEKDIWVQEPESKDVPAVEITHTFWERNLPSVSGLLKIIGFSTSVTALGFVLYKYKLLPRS
The test can be described thus: Selectivity against MAO-A enzyme (MAO-Glo). Here is the method:
(§1) (1) Instrument, Consumable and Reagent
(§2) Microplate reader (Perkin Elmer, EnVision), 384-well plate (Perkin Elmer), centrifuge (Eppendorf), MAO-Glo™ (Promega), MAO-A (Active Motif) and MAO-B (Active Motif).
(§3) (2) Preparation of Concentration Gradient Compound Solutions
(§4) An appropriate amount of the compound to be tested was taken, dissolved in DMSO to 10 mM and then stored. The solution was then gradiently diluted 4-fold with DMSO, 6 concentration gradients in total.
(§5) (3) Preparation of Enzyme Solutions
(§6) MAO-A/B mother liquor was diluted with the experimental buffer for MAO-A/B to obtain enzyme solutions of 2× concentrations.
(§7) (4) Preparation of Substrate Mixtures of 2× Concentrations
(§8) The mother liquor of MAO-A/B substrate mixture was diluted with the experimental buffer for MAO-A/B to obtain substrate mixtures of 2× concentrations.
(§9) 200 nL compound solutions or solvents of different concentrations and 10 μL MAO-A/B enzyme solutions of 2× concentrations were added into a 384-well plate, centrifuged at 1,000 rpm for 60 s, shaken to be mixed uniformly and then incubated at room temperature for 15 min. 10 μL substrate mixtures of 2× concentrations were then added into each well, and reaction was initiated. The 384-well plate was centrifuged at 1,000 rpm for 60 s, shaken for a uniform mixing and then incubated at room temperature for 60 min. 20 μL of test stop solution was added to stop reaction. Centrifugation was performed at 1,000 rpm for 60 s, and shaking was performed for uniform mixing. After 30 min of standing, the microplate reader was used to perform reading.
(§10) The inhibition rate was calculated according to the following formula: Inhibition rate (%)=(Signal_Max-Signal_sample)/(Signal_Max-Signal_min)×100 (6) Fitting of Dose-Response Curve
(§11) With the log value of concentration as the X axis and the percent inhibition rate as the Y axis, the log (inhibitor) vs. response-variable slope of analysis software GraphPad Prism 5 was used to fit a dose-response curve, thus obtaining the IC50 value of activity of each compound against the enzyme.

Another test deals with T2, MAO-B (Homo sapiens, UniProt P27338).
T2 construct: purchased Active Motif
T2 sequence (P27338 1-520): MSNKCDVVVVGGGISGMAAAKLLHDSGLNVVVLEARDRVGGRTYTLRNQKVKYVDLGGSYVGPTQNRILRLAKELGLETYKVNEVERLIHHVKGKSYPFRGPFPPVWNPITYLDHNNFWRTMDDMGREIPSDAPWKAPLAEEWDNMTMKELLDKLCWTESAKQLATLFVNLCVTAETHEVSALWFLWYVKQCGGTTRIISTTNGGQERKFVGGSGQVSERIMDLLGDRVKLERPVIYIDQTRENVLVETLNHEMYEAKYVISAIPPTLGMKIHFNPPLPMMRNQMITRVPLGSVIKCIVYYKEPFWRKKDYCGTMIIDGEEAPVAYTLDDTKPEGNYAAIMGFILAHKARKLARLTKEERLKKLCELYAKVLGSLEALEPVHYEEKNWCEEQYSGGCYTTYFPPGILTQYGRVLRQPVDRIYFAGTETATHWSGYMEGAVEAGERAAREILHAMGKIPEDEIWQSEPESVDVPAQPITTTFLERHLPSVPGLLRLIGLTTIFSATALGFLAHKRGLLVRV
Put plainly: Selectivity against MAO-B enzyme (MAO-Glo). Here is the method: as §1, §2, §3, §4, §5, §6, §7, §8, §9, §10, §11

Test [1] addresses T3, rhVAP-1 (Homo sapiens, UniProt Q16853).
T3 construct: purchased PeproTech
T3 sequence (Q16853 27-763 limits assumed): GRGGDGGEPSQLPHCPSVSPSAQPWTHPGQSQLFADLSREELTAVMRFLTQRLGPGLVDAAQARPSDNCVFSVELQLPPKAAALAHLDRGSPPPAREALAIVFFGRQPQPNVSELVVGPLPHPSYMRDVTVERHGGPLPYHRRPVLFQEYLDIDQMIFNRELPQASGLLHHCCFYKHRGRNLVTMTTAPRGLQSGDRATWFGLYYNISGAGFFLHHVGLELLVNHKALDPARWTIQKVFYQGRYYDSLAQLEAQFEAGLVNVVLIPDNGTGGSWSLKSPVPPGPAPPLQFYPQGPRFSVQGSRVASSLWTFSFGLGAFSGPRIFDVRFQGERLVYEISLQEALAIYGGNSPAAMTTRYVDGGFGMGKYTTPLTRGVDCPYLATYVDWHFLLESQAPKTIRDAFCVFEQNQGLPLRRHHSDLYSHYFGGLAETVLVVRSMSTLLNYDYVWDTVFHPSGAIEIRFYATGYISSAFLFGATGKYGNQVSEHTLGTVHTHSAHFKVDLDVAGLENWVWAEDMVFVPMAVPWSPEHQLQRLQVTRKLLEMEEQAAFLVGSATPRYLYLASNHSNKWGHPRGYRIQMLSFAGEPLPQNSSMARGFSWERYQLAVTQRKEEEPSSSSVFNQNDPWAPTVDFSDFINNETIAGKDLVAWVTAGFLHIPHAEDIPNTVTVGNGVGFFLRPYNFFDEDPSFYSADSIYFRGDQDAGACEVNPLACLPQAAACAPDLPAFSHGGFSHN
Put plainly: Inhibitory activity against rhVAP-1 enzyme (Biological Example 2). The following applies: Table 2; benzylamine substrate, Amplex Red/HRP. As for the experimental part:
(§12) 1. Inhibitory Activity of Compounds Against rhVAP-1 Enzyme
as §1
Microplate reader (Perkin Elmer, Nivo 5S), black unclear-bottom 96-well plate (Corning) and rhVAP-1 (PeproTech)
as §3
An appropriate amount of the compound to be tested was taken, dissolved in DMSO to 10 mM and then stored. Before the study, an appropriate amount of mother liquor of the 10 mM compound to be tested was taken and gradiently diluted 3-fold with DMSO, 10 concentration gradients in total. Each concentration gradient was then diluted 100-fold with 0.1 M of PBS.
as §5
(§13) An appropriate amount of protein diluent was added into rhVAP-1 powder, obtaining 1 mg/mL of mother liquor for storage. Before the study, PBS was used to carry out dilution to obtain enzyme solutions of 4× concentrations.
as §7
(§14) An appropriate amount of benzylamine was weighed and dissolved with PBS to obtain 200 mM of benzylamine solution. The benzylamine solution was added with 2 mM of Amplex Red mother liquor and 500 U/mL of HRP mother liquor and diluted with PBS to obtain substrate mixtures of 2× concentrations.
10 μL compound solutions of different concentrations, 25 μL rhVAP-1 enzyme solutions of 4× concentrations and 15 μL of PBS were first added into a 96-well plate, shaken to be mixed uniformly and then incubated at 37° C. for 30 min. 50 μL substrate mixtures of 2× concentrations were then added into each well, and the microplate reader was immediately used to perform detection with 580 nm (20 nm) exciting light and 620 nm (10 nm) emission light for 5 min each time, 30 min in total. The inhibition rate was calculated according to the following formula: V (RFU/min)=(Ft (RFU)−F0 (RFU))/(time(min)) Inhibition rate (%)=100%−Vcmpd (RFU/min)/Vmax (RFU/min)×100%
V: fluorescence change rate; Ft: fluorescence reading at time point t; F0: initial fluorescence reading; Time: duration t; Vcmpd: fluorescence change rate of tested compound; Vmax: Max hole fluorescence change rate.
(6) Fitting of Dose-Response Curve
as §11

Test [2] addresses T3, rhVAP-1. Put plainly: Inhibitory activity against rhVAP-1 enzyme (Biological Example 1). The settings on record: Table 1; benzylamine substrate, Amplex Red/HRP. Here is the method: as §12, §1
Multifunctional microplate reader (MD, FlexStation3), black unclear-bottom 96-well plate (Corning), and rhVAP-1 (PeproTech)
as §3
An appropriate amount of the compound to be tested was taken, dissolved in DMSO to 10 mM and then stored. Before the study, an appropriate amount of mother liquor of the 10 mM compound to be tested was diluted with DMSO, so that 1 mM solution was obtained. The solution was then gradiently diluted 3-fold with DMSO, 10 concentration gradients in total. PBS was then used to carry out 100-fold dilution, so that compound solutions of 10× series of concentrations were prepared.
as §5, §13, §7, §14
10 μL compound solutions of different concentrations, 25 μL rhVAP-1 enzyme solutions of 4× concentrations and 15 μL of PBS were first added into a 96-well plate, shaken to be mixed uniformly and then incubated at 37° C. for 30 min. 50 μL substrate mixtures of 2× concentrations were then added into each well, and the microplate reader was immediately used to detect fluorescence intensity of each well with 565 nm exciting light and 590 nm emission light for 5 min each time, 25 min in total. […]
(§15) V: fluorescence change rate; Ft: fluorescence reading at time point t; F0: initial fluorescence reading; Time: duration t; Vcmpd: fluorescence change rate of tested compound; Vmax: Max hole fluorescence change rate. […]

Another test deals with T4, rhAOC1 (Homo sapiens, UniProt P19801).
T4 construct: purchased R&D
T4 sequence (P19801 20-751): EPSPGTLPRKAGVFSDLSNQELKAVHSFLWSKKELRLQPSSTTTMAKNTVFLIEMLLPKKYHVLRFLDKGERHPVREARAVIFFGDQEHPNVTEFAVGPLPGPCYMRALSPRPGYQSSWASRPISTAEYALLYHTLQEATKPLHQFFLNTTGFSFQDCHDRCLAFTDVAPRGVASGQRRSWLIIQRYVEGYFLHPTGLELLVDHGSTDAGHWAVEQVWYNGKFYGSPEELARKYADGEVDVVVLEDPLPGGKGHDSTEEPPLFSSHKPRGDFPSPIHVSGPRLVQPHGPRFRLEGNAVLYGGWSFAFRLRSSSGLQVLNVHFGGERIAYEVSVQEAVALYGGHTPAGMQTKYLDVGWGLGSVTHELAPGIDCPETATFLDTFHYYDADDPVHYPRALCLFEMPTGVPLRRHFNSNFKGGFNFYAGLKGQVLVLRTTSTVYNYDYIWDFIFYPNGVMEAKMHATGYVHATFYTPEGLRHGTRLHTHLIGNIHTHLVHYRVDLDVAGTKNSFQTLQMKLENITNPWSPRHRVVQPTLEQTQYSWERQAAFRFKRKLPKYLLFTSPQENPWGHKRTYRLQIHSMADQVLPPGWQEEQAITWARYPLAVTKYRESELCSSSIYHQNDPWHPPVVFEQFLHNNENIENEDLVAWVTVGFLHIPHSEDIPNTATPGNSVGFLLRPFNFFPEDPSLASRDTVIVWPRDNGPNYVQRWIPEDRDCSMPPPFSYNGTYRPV
The test can be described thus: Selectivity against rhAOC1 enzyme (Biological Example 1). The settings on record: Table 1; histamine substrate, Amplex Red/HRP. Here is the method: 2. Selectivity of Compounds Against rhAOC1 Enzyme
as §1
Microplate reader (Perkin Elmer, Nivo 5S), black unclear-bottom 96-well plate (Corning) and rhAOC1 (R&D)
as §3
An appropriate amount of the compound to be tested was taken, dissolved in DMSO to 10 mM and then stored. Before the study, an appropriate amount of mother liquor of the 10 mM compound to be tested was taken and gradiently diluted 3-fold with DMSO, 10 concentration gradients in total. Each concentration gradient was then diluted 10-fold with 0.1 M of PBS.
as §5
An appropriate amount of rhAOC1 mother liquor with a concentration of 0.441 mg/mL was taken and diluted with an appropriate amount of 50 mM HEPES buffer solution to obtain enzyme solutions of 4× concentrations.
as §7
An appropriate amount of histamine was weighed and dissolved with 50 mM of HEPES buffer solution to obtain 20 mM of histamine solution. The histamine solution was added with 2 mM of Amplex Red mother liquor and 500 U/mL of HRP mother liquor and diluted with 50 mM of HEPES buffer solution to obtain substrate mixtures of 2× concentrations.
10 μL compound solutions of different concentrations, 25 μL rhAOC1 enzyme solutions of 4× concentrations and 15 μL of 50 mM HEPES buffer solution were first added into a 96-well plate, shaken to be mixed uniformly and then incubated at 37° C. for 30 min. 50 μL substrate mixtures of 2× concentrations were then added into each well, and the microplate reader was immediately used to detect fluorescence intensity of each well with 580 nm (20 nm) exciting light and 620 nm (10 nm) emission light for 5 min each time, 30 min in total. […]
as §15

Each structure is given as a SMILES string. Where a name gives a salt, the structure may show the parent alone. A value given as a limit tells only on which side of the number the result lay.

Regarding `CC(C)(C)CN1CCc2nn(C/C(=C/F)CN)cc2C1=O` [Compound A37 hydrochloride, (E)-2-(2-(aminomethyl)-3-fluoroallyl)-5-neopentyl-2,5,6,7-tetrahydro-4H-pyrazolo[4,3-c]pyridin-4-one], the IC50 on MAO-A is over 100 µM; against MAO-B, over 100 µM; against rhVAP-1 [1] it was 0.008 µM.
`NC/C(=C\F)Cn1ncc2c(=O)n(C3CC3)ccc21` [Compound A44 hydrochloride, (E)-1-(2-(aminomethyl)-3-fluoroallyl)-5-cyclopropyl-1,5-dihydro-4H-pyrazolo[4,3-c]pyridin-4-one]: the half-inhibitory concentration (IC50) against MAO-A turned out to be 77.4 µM; at MAO-B, 88.9 µM; at rhVAP-1 [1], 0.013 µM.
Take `NC/C(=C\F)Cn1ccc2cc(C(=O)N3CCOCC3)ccc21` [Compound C1, (E)-(1-(2-(aminomethyl)-3-fluoroallyl)-1H-indol-5-yl)(morpholino)methanone]: the IC50 amounted to 0.079 µM on rhVAP-1 [2] and 26.9 µM at rhAOC1.

Usually IC50 stands for the midpoint of a concentration-inhibition curve. High values mean a need for much substance, low ones inhibition by little substance.
